From US10285982B2, “3-(1H-pyrrolo[2,3-B]pyridin-2-yl)-1H-pyrazolo[3,4-C]pyridines and therapeutic uses thereof” (Samumed, LLC, priority 2015, dated 2019)

Legend:
[1] = system: primary human mesenchymal stem cells (hMSCs); assay: Chondrogenesis induction in hMSCs (nodule count); type: cell-based; settings: 144 h, hMSC chondrogenesis, 6 days; for Emax: relative to TGF-β3 (10 ng/mL) positive control, read-out: Max. Activity as % TGF-β3 activity; for EC50: concentration required to induce 50% of TGF-β3 level, read-out: Conc. (nM) of 50% TGF-β3 activity
Method: Representative compounds were screened using primary human mesenchymal stem cells (hMSCs) to determine their ability to induce chondrogenesis (process by which cartilage is developed).
Primary human mesenchymal stem cells (hMSCs) were purchased from Lonza (Walkersville, Md.) and expanded in Mesenchymal Stem Cell Growth Media (Lonza). Cells between passage 3 and 6 were used for the experiments.
Each compound was dissolved in DMSO as a 10 mM stock and used to prepare compound source plates. Serial dilution (1:3, 6-point dose-response curves from 2700 nM to 10 nM) and compound transfer was performed using the ECHO 550 (Labcyte, Sunnyvale, Calif.) into 96-well clear bottom assay plates (Greiner Bio-One) with appropriate DMSO backfill for a final DMSO concentration of 0.03%. hMSCs were plated at 20,000 cells/well in 250 μL/well Incomplete Chondrogenic Induction Medium (Lonza; DMEM, dexamethasone, ascorbate, insulin-transferrin-selenium [ITS supplement], gentamycin-amphotericin [GA-1000], sodium pyruvate, proline and L-glutamine). TGF-β3 (10 ng/mL) was used as a positive control for differentiation while negative control wells were treated with 75 nL DMSO for normalization and calculating EC50 values. Cells were incubated at 37° C. and 5% CO2 for 6 days. To image chondrogenic nodules, the cells were fixed using 4% formaldehyde (Electron Microscopy Sciences), and stained with 2 μg/mL Rhodamine B (Sigma-Aldrich) and 20 μM Nile Red (Sigma-Aldrich) [Johnson K., et. al, A Stem Cell-Based Approach to Cartilage Repair, Science, (2012), 336(6082), 717-721]. The nodules imaged (4 images per well at 4× magnification) by excitation at 531 nm and emission at 625 nm and quantified using the CellInsight CX5 (Thermo Scientific). Number of nodules in each well was normalized to the average of 3 DMSO treated wells on the same plate using Excel (Microsoft Inc.). The normalized averages (fold change over DMSO) of 3 replicate wells for each compound concentration were calculated. Due to solubility limitations of some of the compounds, curve fitting was incomplete leading to inaccurate EC50 determinations.
Using TGF-β3 as a positive control, the concentration of representative compounds required to induce 50% levels of chondrogenesis is reported. In addition, the maximum activity of each compound and the respective dose that each compound reached maximum chondrogenesis activity is reported.

IL-6 (THP-1 cells) = assay: IL-6 inhibition in LPS-stimulated THP-1 cells (HTRF); type: cell-based; settings: Homo sapiens; for EC50: IL-6 in THP-1 cells, LPS 500 ng/mL, 22 hours; for inhibition at 10 µM: given where EC50 >10 μM, IL-6, THP-1 cells, LPS, read-out: percent inhibition at 10 μM
Summary of the method: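 Readout is the 665/620 nm HTRF ratio for secreted IL-6, normalized to DMSO wells, with EC50 from a variable-slope four-parameter fit, or % inhibition at 10 μM when above 10 μM. Cells (1% FBS, 24 h beforehand) got compound for 2 h, then LPS 500 ng/mL for 22 h at 37° C; top dose 10 μM, 0.1% DMSO.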

Row | Structure (SMILES) | Emax [1] [%] | EC50 (IL-6 (THP-1 cells)) [µM] | inhibition at 10 µM (IL-6 (THP-1 cells)) [%] | EC50 [1] [nM]
1 | CN(C)Cc1cncc(-c2cc3c(-c4cc5c(-c6ccncc6)ccnc5[nH]4)n[nH]c3cn2)c1 [Compound 125, N,N-Dimethyl-1-(5-(3-(4-(pyridin-4-yl)-1H-pyrrolo[2,3-b]pyridin-2-yl)-1H-pyrazolo[3,4-c]pyridin-5-yl)pyridin-3-yl)methanamine] | 33 | > 10 | 34.4 | –
2 | O=C(Nc1cncc(-c2cc3c(-c4cc5cccnc5[nH]4)n[nH]c3cn2)c1)C1CC1 [Compound 272, N-(5-(3-(1H-Pyrrolo[2,3-b]pyridin-2-yl)-1H-pyrazolo[3,4-c]pyridin-5-yl)pyridin-3-yl)cyclopropanecarboxamide] | 18 | 3.06 | – | –
3 | CCCCC(=O)Nc1cncc(-c2cc3c(-c4cc5c(-c6cccnc6)ccnc5[nH]4)n[nH]c3cn2)c1 [Compound 103, N-(5-(3-(4-(Pyridin-3-yl)-1H-pyrrolo[2,3-b]pyridin-2-yl)-1H-pyrazolo[3,4-c]pyridin-5-yl)pyridin-3-yl)pentanamide] | 53 | > 10 | 17.8 | 10
4 | CN1CCN(c2ccnc3[nH]c(-c4n[nH]c5cnc(-c6cncc(NC(=O)CC7CCNCC7)c6)cc45)cc23)CC1 [Compound 641, N-(5-(3-(4-(4-Methylpiperazin-1-yl)-1H-pyrrolo[2,3-b]pyridin-2-yl)-1H-pyrazolo[3,4-c]pyridin-5-yl)pyridin-3-yl)-2-(piperidin-4-yl)acetamide] | 341 | > 10 | 29.6 | 100
5 | CC(C)(C)C(=O)Nc1cncc(-c2cc3c(-c4cc5c(-c6cccc(F)c6)ccnc5[nH]4)n[nH]c3cn2)c1 [Compound 8, N-(5-(3-(4-(3-Fluorophenyl)-1H-pyrrolo[2,3-b]pyridin-2-yl)-1H-pyrazolo [3,4-c]pyridin-5-yl)pyridin-3-yl)pivalamide] | 114 | > 10 | 45.4 | 10
6 | c1cncc(-c2ccnc3[nH]c(-c4n[nH]c5cnc(-c6cncnc6)cc45)cc23)c1 [Compound 111, 3-(4-(Pyridin-3-yl)-1H-pyrrolo[2,3-b]pyridin-2-yl)-5-(pyrimidin-5-yl)-1H-pyrazolo[3,4-c]pyridine] | 50 | > 10 | 37.4 | –
7 | c1cncc(-c2cc3c(-c4cc5cccnc5[nH]4)n[nH]c3cn2)c1 [Compound 256, 5-(Pyridin-3-yl)-3-(1H-pyrrolo[2,3-b]pyridin-2-yl)-1H-pyrazolo[3,4-c]pyridine] | 28 | 0.023 | – | –
